Results: ChEMBL document CHEMBL1146474, “Design, synthesis, and bioactivities of steroid-linked taxol analogues as potential targeted drugs for prostate and breast cancer” (J Nat Prod, 2004)

What was measured:
[1] = Induction of tubulin assembly at 0.2 uM relative to taxol
[2] = system: MCF7; assay: Antiproliferative activity against human MCF7 cells assessed as reduction of cell survival after 7 days by MTS method; format: functional
[3] = system: PC-3; assay: cells; settings: Homo sapiens, PC-3, 48 h
[4] = system: MDA-MB-231; assay: cells; settings: Homo sapiens, MDA-MB-231, 48 h
[5] = system: MCF7; assay: cells; settings: Homo sapiens, MCF7, 48 h
[6] = system: A2780; assay: cells; settings: Homo sapiens, A2780, 48 h
[7] = Induction of tubulin assembly at 1 uM relative to taxol
[8] = system: MCF7; assay: Antiproliferative activity against human MCF7 cells assessed as reduction of cell survival after 48 hrs by MTS method; format: functional
[9] = system: MDA-MB-231; assay: Antiproliferative activity against human MDA-MB-231 cells assessed as inhibition of cell survival after 48 hrs by MTS method; format: functional

Compound | Activity [1] [%] | Activity [2] [%] | IC50 [3] [nM] | IC50 [4] [nM] | IC50 [5] [nM] | IC50 [6] [nM] | Activity [7] [%] | Activity [8] [%] | inhibition (INH) [9] [%]
CC(=O)O[C@H]1C(=O)[C@]2(C)[C@@H](OC(=O)CCC(=O)O[C@@H]3C[C@]4(C)[C@@H](O)CC[C@H]4[C@@H]4CCc5cc(O)ccc5[C@H]43)C[C@H]3OC[C@@]3(OC(C)=O)[C@H]2[C@H](OC(=O)c2ccccc2)[C@]2(O)C[C@H](OC(=O)[C@H](O)[C@@H](NC(=O)c3ccccc3)c3ccccc3)C(C)=C1C2(C)C | 100 | 70 | 320 | 780 | 557 | 2900 | 100 | 20 | 85
CC(=O)O[C@H]1C(=O)[C@@]2(C)[C@H]([C@H](OC(=O)c3ccccc3)[C@]3(O)C[C@H](OC(=O)[C@H](OC(=O)CCC(=O)O[C@@H]4C[C@]5(C)[C@@H](O)CC[C@H]5[C@@H]5CCc6cc(O)ccc6[C@H]54)[C@@H](NC(=O)c4ccccc4)c4ccccc4)C(C)=C1C3(C)C)[C@]1(OC(C)=O)CO[C@@H]1C[C@@H]2O | 60 | – | – | – | – | – | 60 | – | –
CC(=O)O[C@H]1C(=O)[C@@]2(C)[C@H]([C@H](OC(=O)c3ccccc3)[C@]3(O)C[C@H](OC(=O)[C@H](O)[C@@H](NC(=O)c4ccccc4)c4ccccc4)C(C)=C1C3(C)C)[C@]1(OC(C)=O)CO[C@@H]1C[C@@H]2O [PACLITAXEL] | – | 70 | – | – | – | – | – | 20 | 85
CC(=O)O[C@H]1C(=O)[C@]2(C)[C@@H](OC(=O)/C=C/C[C@@H]3C[C@H]4[C@@H]5CCc6cc(O)ccc6[C@H]5CC[C@]4(C)[C@H]3O)C[C@H]3OC[C@@]3(OC(C)=O)[C@H]2[C@H](OC(=O)c2ccccc2)[C@]2(O)C[C@H](OC(=O)[C@H](O)[C@@H](NC(=O)c3ccccc3)c3ccccc3)C(C)=C1C2(C)C | 100 | – | 120 | 2200 | 1600 | 8300 | 100 | – | –
CC(=O)O[C@@]12CO[C@@H]1C[C@H](O)[C@@]1(C)C(=O)[C@H](OC(=O)CCC(=O)O[C@@H]3C[C@]4(C)[C@@H](O)CC[C@H]4[C@@H]4CCc5cc(O)ccc5[C@H]43)C3=C(C)[C@@H](OC(=O)[C@H](O)[C@@H](NC(=O)c4ccccc4)c4ccccc4)C[C@@](O)([C@@H](OC(=O)c4ccccc4)[C@H]21)C3(C)C | 100 | – | 68 | 304 | 103 | 1900 | 100 | – | –
CC(=O)O[C@H]1C(=O)[C@@]2(C)[C@H]([C@H](OC(=O)c3ccccc3)[C@]3(O)C[C@H](OC(=O)[C@H](OC(=O)/C=C/C[C@@H]4C[C@H]5[C@@H]6CCc7cc(O)ccc7[C@H]6CC[C@]5(C)[C@H]4O)[C@@H](NC(=O)c4ccccc4)c4ccccc4)C(C)=C1C3(C)C)[C@]1(OC(C)=O)CO[C@@H]1C[C@@H]2O | 45 | – | – | – | – | – | 55 | – | –
